Measured values published in patent US20260276636A1, “METHOD FOR SPECIFIC AND RAPID QUANTIFICATION OF THE TOTAL VIABLE BACTERIAL COUNT IN RAW MILK” (National Institute of Metrology, priority 2023, published 2026).

What was measured:
[1] = test system: B. subtilis; assay: Minimum inhibitory concentration (MIC) assay; assay type: cell-based, Bacillus subtilis; conditions: 96-well plate, 37° C., 48 h; ATCC 6633
Procedure: (§1) • 1. Culture of bacterial strains. After the four bacterial strains were activated on a nutrient agar plate, a single colony was picked, inoculated to TSB medium (10 g/L peptone, 3 g/L beef extract powder, and 5 g/L sodium chloride), incubated at 37° C. for 6 h to the mid-logarithmic stage, and then centrifuged at 8000 rpm for 5 min to collect the bacterial cells. The collected bacterial cells were suspended in fresh TSB medium at a bacterial suspension concentration of approximately 10^7 cells/mL. • 2. Antibiotics. […] Antibiotics were purchased from Shanghai Yuanye Biotechnology Co., Ltd. An appropriate amount of antibiotics was weighed and dissolved in DSMO to prepare a stock solution of a cell division inhibitor, which was stored in the dark at −20° C. • 3. Minimum inhibitory concentration (MIC) assay. The above four bacterial suspensions were plated in a 96-well plate, to which antibiotics were added at final concentrations of […], and then incubated at 37° C. for 48 h. Bacterial growth was analyzed using a microplate reader, and the smallest concentration of antibiotics that could inhibit the growth of bacteria was defined as the minimum inhibitory concentration. • 4. Evaluation of inhibitory effect on bacterial division. […] After centrifugation at 8000 rpm, the bacterial cells were collected and resuspended in the PBS buffer, and the changes in the number of bacteria in the sample were analyzed using the forward scatter signals on the flow cytometer. • 5. Detection of bacterial viability. […] SYTO9 labeled all bacteria in green and PI labeled dead bacteria in red. The above labeling system was left at room temperature for 30 min in the dark, washed and centrifuged with PBS twice, and the percentages of viable and dead bacteria were analyzed using a flow cytometer. Measurement and analysis were performed using an Apogee A50 flow cytometer. At an excitation wavelength of 488 nm, a flow rate of 3-25 μL/min and a detection time of 10-100 s, the total number of bacteria was analyzed in the green fluorescence channel, and the number of dead bacteria was analyzed in the red fluorescence channel.

[2] = test system: E. coli; assay: Minimum inhibitory concentration (MIC) assay; assay type: cell-based, Escherichia coli; conditions: 96-well plate, 37° C., 48 h; ATCC 10798
Procedure: as §1

[3] = test system: S. aureus; assay: Minimum inhibitory concentration (MIC) assay; assay type: cell-based, Staphylococcus aureus; conditions: 96-well plate, 37° C., 48 h; ATCC 29213
Procedure: as §1

[4] = test system: L. lactis; assay: Minimum inhibitory concentration (MIC) assay; assay type: cell-based, Lactococcus lactis; conditions: 96-well plate, 37° C., 48 h; ATCC 19257
Procedure: as §1

[5] = test system: four species of bacteria (B. subtilis, E. coli, S. aureus, L. lactis); assay: Evaluation of inhibitory effect on bacterial division (flow cytometry); assay type: cell-based; conditions: 1 μg/mL, 2 h of treatment, compared to blank control; FIG. 7
Procedure: (§2) • 1. Culture of bacterial strains. After the four bacterial strains were activated on a nutrient agar plate, a single colony was picked, inoculated to TSB medium (10 g/L peptone, 3 g/L beef extract powder, and 5 g/L sodium chloride), incubated at 37° C. for 6 h to the mid-logarithmic stage, and then centrifuged at 8000 rpm for 5 min to collect the bacterial cells. The collected bacterial cells were suspended in fresh TSB medium at a bacterial suspension concentration of approximately 10^7 cells/mL. • 2. Antibiotics. […] Bacterial growth was analyzed using a microplate reader, and the smallest concentration of antibiotics that could inhibit the growth of bacteria was defined as the minimum inhibitory concentration. • 4. […] After centrifugation at 8000 rpm, the bacterial cells were collected and resuspended in the PBS buffer, and the changes in the number of bacteria in the sample were analyzed using the forward scatter signals on the flow cytometer. • 5. […] The above labeling system was left at room temperature for 30 min in the dark, washed and centrifuged with PBS twice, and the percentages of viable and dead bacteria were analyzed using a flow cytometer. […]

[6] = test system: Staphylococcus aureus; conditions: 2 h
Procedure: as §2

[7] = test system: B. subtilis, E. coli, S. aureus, and L. lactis; assay: Fluorescence microscopy observation of FADA-labeled bacteria; assay type: cell-based; conditions: 300 μM, 37° C., 6 h; FIG. 1
Procedure: (§3) • 1. Staphylococcus aureus (Deposit number: ATCC 29213), Escherichia coli (Deposit number: ATCC 10798), Lactococcus lactis (Deposit number: ATCC 19257), and Bacillus subtilis (Deposit number: ATCC 6633). The four bacterial strains are the dominant bacteria or the important indicator and pathogenic bacteria in raw milk. • 2. […] Labeling method. […] Fluorescence microscopy observation method. […] 10 μL of bacterial suspension was added onto a slide to prepare an observation sample, which was observed using a 100× oil lens and FITC fluorescence channel. Brightfield images and fluorescence field images were recorded separately. • 5. Flow cytometry. […] The sample not incubated with FADA was used as the negative control.

[8] = test system: four species of bacteria (B. subtilis, E. coli, S. aureus, L. lactis); assay: Labeling efficiency by flow cytometry; assay type: cell-based
Procedure: as §3, with “Optimization of labeling conditions.” for “The sample not incubated with FADA was used as the negative control.”

[9] = test system: Cow-derived fresh Leukocytes; assay: Specific labeling in mixed samples, fluorescence microscopy; assay type: cell-based; conditions: 500 μM, 37° C., 6 h, mixed with S. aureus; FIG. 6
Procedure: (§4) • 1. Activation of bacterial strain. After Staphylococcus aureus was activated on a nutrient agar plate, a single colony was picked, inoculated to TSB medium (10 g/L peptone, 3 g/L beef extract powder, and 5 g/L sodium chloride), incubated at 37° C. for 6 h to the mid-logarithmic stage, and then centrifuged at 8000 rpm for 5 min to collect the bacterial cells. The collected bacterial cells were suspended in fresh TSB medium at a bacterial suspension concentration of approximately 10^7 cells/mL. • 2.

[10] = test system: Saccharomyces cerevisiae; assay: as above; assay type: cell-based; conditions: 500 μM, 37° C., 6 h, mixed with S. aureus; FIG. 6
Procedure: as §4

[11] = test system: Staphylococcus aureus; assay: as above; assay type: cell-based; conditions: 500 μM, 37° C., 6 h, mixed with yeast or cow leukocytes; FIG. 6
Procedure: as §4

[12] = test system: E. coli; assay: Fluorescent labeling in presence of bacterial cell division inhibitor (flow cytometry); assay type: cell-based, Escherichia coli; conditions: 500 μM, 2 h, with bacterial cell division inhibitor, FIG. 8
Excerpt: (§5) • 1. Culture of bacterial strains. […] Fluorescent labeling with FADA. […] Fluorescent labeling with FADAA (Amino FADA).

[13] = test system: L. lactis; assay: as above; assay type: cell-based, Lactococcus lactis; conditions: 500 μM, 2 h, with bacterial cell division inhibitor, FIG. 8
Excerpt: as §5

Molecule	Resistance to quinolone antibiotics (MIC), B. subtilis [1] [mg/L]	Resistance to quinolone antibiotics (MIC), E. coli [2] [mg/L]	Resistance to quinolone antibiotics (MIC), S. aureus [3] [mg/L]	Resistance to quinolone antibiotics (MIC), L. lactis [4] [mg/L]	Inhibition of cell division of the four species of bacteria [5]	bacterial viability after antibiotic treatment [6] [%]	Fluorescent labeling of bacterial cells under fluorescence microscope [7]	labeling efficiency ([8]; 300 μM, 37° C., 6 h, FIG. 2) [%]	labeling efficiency ([8]; 500 μM, 4 h, FIG. 3)	Fluorescent labeling of somatic cells (cow leukocytes) in mixed sample [9]	Fluorescent labeling of yeast in mixed sample [10]	Fluorescent labeling of S. aureus in mixed samples [11]	labeling effect (labeling efficiency) [12] [%]	labeling effect (labeling efficiency) [13] [%]
O=C(O)c1cn(C2CC2)c2cc(N3CCNCC3)c(F)cc2c1=O [Ciprofloxacin, ciprofloxacin]	1	0.5	1	1	efficient inhibition of cell division	–	–	–	–	–	–	–	–	–
C[C@H]1COc2c(N3CCN(C)CC3)c(F)cc3c(=O)c(C(=O)O)cn1c23 [Levofloxacin, levofloxacin]	2	<0.25	<0.25	0.5	–	–	–	–	–	–	–	–	–	–
COc1c(N2C[C@@H]3CCCN[C@@H]3C2)c(F)cc2c(=O)c(C(=O)O)cn(C3CC3)c12 [Moxifloxacin, moxifloxacin]	8	1	4	2	–	88.1	–	–	–	–	–	–	–	–
CCn1cc(C(=O)O)c(=O)c2ccc(C)nc21 [Nalidixic acid, nalidixic acid]	128	4	64	>256	–	–	–	–	–	–	–	–	–	–
Carboxyfluorescein-labeled amino-D-alanine [FADA]	–	–	–	–	–	–	all cells in the field of view were found fluorescently labeled	> 98.5	more than 98.5%	not labeled	not labeled	fluorescently labeled	81.6	57.1
